Literature values as cited in patent US20040254092A1 (priority 2003, published 2004).

Tests used:
[1] = system: Mycoplasma, Chlamydia, and other pathogens
[2] = system: Poliomyelitis virus type I (PVI); conditions: ozone density 0.13 mg/L, time 30 seconds
[3] = system: Type-B hepatitis surface antigen (HbsAg)
[4] = system: SA-H and human-wheel virus type 2

In the case of `O=[O+][O-]` [Ozone, ozone], the Sterilizing efficiency (Coronaviridae) is given as 100%, the Sterilizing efficiency [1] is given as 99.85% and the Sterilizing efficiency [2] is given as 100%. For the same compound, the Sterilizing efficiency (Coliphage ms2) was 98%, the Sterilizing efficiency (HIV) was 100% and the Sterilizing efficiency [3] was 99.99%. The Sterilizing efficiency [4] was 99.60% and the Sterilizing efficiency (Type-A flu virus) was 99%.
